{
  "source": "patent US11419862B2",
  "about": "“Quinoline derivative for treatment of nasopharyngeal carcinoma” (CHIA TAI TIANQING PHARMACEUTICAL GROUP CO., LTD., priority 2018, dated 2022)",
  "tested_on": "nasopharyngeal carcinoma",
  "test": "Efficacy on nasopharyngeal carcinoma: patient case reports treated orally with capsules of the compound of Example 1",
  "format": "in vivo, human",
  "set-up": "key to evaluation according to RECIST 1.1: CR: complete remission, which means that target lesions of tumors have disappeared and no new lesions appear which is maintained for at least 4 weeks; PR: partial remission, which means 30% or more decrease in the sum of the diameters of target lesions of tumors than the baseline level, which is maintained for at least 4 weeks; PD: the progression of disease, which means 20% or more increase in the diameters of target lesions of tumors than the baseline level; SD: stable disease, which means the sum of diameters of all target leisions neither shrink to qualify for PR nor sufficient increase to qulify for PD",
  "method": "During or after radiotherapy, the patients are treated with the capsules of the compound of Example 1 at 12 mg qd. The administration is continuously performed for 2 weeks and rest for 1 week, followed by continuously administrating for 2 weeks and resting for 1 week as a cycle. The target lesions are regularly evaluated, and the treatment regimen is terminated according to the evaluation results.\nSubsequently, the patient took orally the capsules of 12 mg of the compound of Example 1 once per day for treatment (continuously administrating for 2 weeks and resting for 1 week as a treatment cycle). […] After 4 cycles of treatment, evaluated as PR according to RECIST 1.1, and the sum of the target lesions was 10 mm, which was reduced by 9 mm from the baseline. After 8 cycles of treatment, the sum of the target lesions was 9 mm, which was reduced by 10 mm from the baseline.\nFrom Mar. 2, 2017, the patient started to take orally the capsules of 12 mg of the compound of Example 1 once per day for treatment (continuously administrating for 2 weeks and resting for 1 week as a treatment cycle). On Apr. […] The treatment with the capsules of the compound of Example 1 was continued.\nThree months later, the patient started to take orally the capsules of 12 mg of the compound of Example 1 once per day for treatment (continuously administrating for 2 weeks and resting for 1 week as a treatment cycle). […] The treatment with the capsules of the compound of Example 1 was continued.",
  "key": {"[1]": {"details": "Example 4, patient, 12 mg once per day orally, after 2 cycles"}, "[2]": {"details": "Example 4, patient, 12 mg once per day orally, after 4 cycles"}, "[3]": {"details": "Example 4, patient, 12 mg once per day orally, after 8 cycles"}, "[4]": {"details": "Example 5, patient, 12 mg once per day orally, after 2 cycles"}, "[5]": {"details": "Example 5, patient, 12 mg once per day orally, after 4 cycles"}, "[6]": {"details": "Example 5, patient, 12 mg once per day orally, after 6 cycles"}, "[7]": {"details": "Example 5, patient, 12 mg once per day orally, after 12 cycles"}, "[8]": {"details": "Example 5, patient, 12 mg once per day orally, after 16 cycles"}, "[9]": {"details": "Example 6, patient, 12 mg once per day orally, after 2 cycles"}, "[10]": {"details": "Example 6, patient, 12 mg once per day orally, after 4 cycles"}},
  "note": "Structures can show the parent of a compound that is named as a salt.",
  "data": [
    {"smiles": "COc1cc2c(Oc3ccc4[nH]c(C)cc4c3F)ccnc2cc1OCC1(N)CC1", "note": "[Example 1, 1-[[[4-fluoro-2-methyl-1H-indol-5-yl)oxy-6-methoxyquinolin-7-yl]oxy]methyl]cyclopropylamine dihydrochloride]", "values": [
      {"measurement": "evaluation according to RECIST 1.1", "setting": "Example 4, patient, 12 mg once per day orally, 2 weeks on/1 week off, after 2 cycles", "result": "PR (partial remission, which means 30% or more decrease in the sum of the diameters of target lesions of tumors than the baseline level, which is maintained for at least 4 weeks)"},
      {"measurement": "reduction of sum of the target lesions from the baseline", "setting": "[1]", "result": 7, "unit": "mm"},
      {"measurement": "sum of the target lesions", "setting": "[1]", "result": 12, "unit": "mm"},
      {"measurement": "evaluation according to RECIST 1.1", "setting": "[2]", "result": "PR (partial remission, which means 30% or more decrease in the sum of the diameters of target lesions of tumors than the baseline level, which is maintained for at least 4 weeks)"},
      {"measurement": "reduction of sum of the target lesions from the baseline", "setting": "[2]", "result": 9, "unit": "mm"},
      {"measurement": "sum of the target lesions", "setting": "[2]", "result": 10, "unit": "mm"},
      {"measurement": "reduction of sum of the target lesions from the baseline", "setting": "[3]", "result": 10, "unit": "mm"},
      {"measurement": "sum of the target lesions", "setting": "[3]", "result": 9, "unit": "mm"},
      {"measurement": "adverse reaction during the administration", "setting": "Example 4, patient, 12 mg once per day orally, relieved after medication and dosage reduction", "result": "Grade 3 hypertension"},
      {"measurement": "evaluation according to RECIST 1.1", "setting": "Example 5, patient, 12 mg once per day orally, 2 weeks on/1 week off, after 2 cycles", "result": "PR (partial remission, which means 30% or more decrease in the sum of the diameters of target lesions of tumors than the baseline level, which is maintained for at least 4 weeks)"},
      {"measurement": "reduction of sum of the target lesions from the baseline", "setting": "[4]", "result": 17, "unit": "mm"},
      {"measurement": "sum of the target lesions", "setting": "[4]", "result": 30, "unit": "mm"},
      {"measurement": "evaluation according to RECIST 1.1", "setting": "[5]", "result": "PR (partial remission, which means 30% or more decrease in the sum of the diameters of target lesions of tumors than the baseline level, which is maintained for at least 4 weeks)"},
      {"measurement": "reduction of sum of the target lesions from the baseline", "setting": "[5]", "result": 19, "unit": "mm"},
      {"measurement": "sum of the target lesions", "setting": "[5]", "result": 28, "unit": "mm"},
      {"measurement": "evaluation according to RECIST 1.1", "setting": "[6]", "result": "PR (partial remission, which means 30% or more decrease in the sum of the diameters of target lesions of tumors than the baseline level, which is maintained for at least 4 weeks)"},
      {"measurement": "reduction of sum of the target lesions from the baseline", "setting": "[6]", "result": 23, "unit": "mm"},
      {"measurement": "sum of the target lesions", "setting": "[6]", "result": 24, "unit": "mm"},
      {"measurement": "evaluation according to RECIST 1.1", "setting": "[7]", "result": "PR (partial remission, which means 30% or more decrease in the sum of the diameters of target lesions of tumors than the baseline level, which is maintained for at least 4 weeks)"},
      {"measurement": "reduction of sum of the target lesions from the baseline", "setting": "[7]", "result": 23, "unit": "mm"},
      {"measurement": "sum of the target lesions", "setting": "[7]", "result": 24, "unit": "mm"},
      {"measurement": "evaluation according to RECIST 1.1", "setting": "[8]", "result": "PR (partial remission, which means 30% or more decrease in the sum of the diameters of target lesions of tumors than the baseline level, which is maintained for at least 4 weeks)"},
      {"measurement": "reduction of sum of the target lesions from the baseline", "setting": "[8]", "result": 24, "unit": "mm"},
      {"measurement": "sum of the target lesions", "setting": "[8]", "result": 23, "unit": "mm"},
      {"measurement": "evaluation according to RECIST 1.1", "setting": "Example 6, patient, 12 mg once per day orally, 2 weeks on/1 week off, after 2 cycles", "result": "SD"},
      {"measurement": "reduction of sum of the target lesions from the baseline", "setting": "[9]", "result": 18, "unit": "mm"},
      {"measurement": "sum of the target lesions", "setting": "[9]", "result": 47, "unit": "mm"},
      {"measurement": "evaluation according to RECIST 1.1", "setting": "[10]", "result": "PR (partial remission, which means 30% or more decrease in the sum of the diameters of target lesions of tumors than the baseline level, which is maintained for at least 4 weeks)"},
      {"measurement": "reduction of sum of the target lesions from the baseline", "setting": "[10]", "result": 23, "unit": "mm"},
      {"measurement": "sum of the target lesions", "setting": "[10]", "result": 42, "unit": "mm"},
      {"measurement": "adverse reaction during the administration", "setting": "Example 6, patient, alleviated by antihypertensive drugs and dose reduction to 10 mg and 8 mg", "result": "Grades 2 and 3 hypertension"}
    ]}
  ]
}
